Data reported in patent US7465471B2, “Palatability of aquaculture feed” (Novus International, Inc., priority 2003, dated 2008).
Structures can show the parent of a compound that is named as a salt. Where two headings read alike, the source gives them in different places.

How the values were obtained:
mold = assay: Mold growth in starter mash by CO2 formation in headspace (Examples 7, 8); details: basal diet 85.2% dry matter; 2.0, 1.5 and 1.0 lb/ton; FIG. 12
Method: Fungal growth in basal starter mash was studied in compositions supplemented with DLM or Alimet® as the methionine source. Total microbial growth was monitored by measuring carbon dioxide (CO2) formation in sealed vessels at 28° C. over time.
The technique of using a closed system and measuring CO2 formation has been verified as an approximation of the conditions found in grain storage bins. See, e.g., Muir et al., Trans. ASAE, 28(5) 1673-1675 (1985), the contents of which are hereby incorporated by reference in their entirety.
A mash starter mash feed (formulation shown in Table 9, below) was subdivided into three groups: basal (control), 0.2% DLM, or 0.2% Alimet®. The feed studied had no commercial mold inhibitors added, and is representative of a typical broiler feed.
Initial moisture of the feed was 10.8%. After the addition of Alimet® or DLM, the moisture of the samples was adjusted by the addition of 2%, 4%, or 6% sterile distilled water to promote mold growth, achieving three moisture groups: […].
For each study, four replicate samples of each moisture group were mixed, and 600 g of the mixture was placed into 1 L containers, sealed, and placed at 28° C. in a temperature-controlled room. Draeger Detector tubes (CO2-measuring, obtained from Fisher Scientific) were used to measure the developed CO2 at different days following vessel sealing (two measurements were made per week). Draeger Short-Term Detector Tubes are glass tubes filled with inert carrier and an indicating reagent. The reagent produces a colorimetric indication in the presence of a particular gas (CO2). The concentration of gas is read directly from the discoloration on the tube's printed scale.
The specific mold species present were not identified. Statistical analysis was accomplished by using Duncan's multiple range test (SAS). Different letters on individual time points in FIGS. 9-11 indicate statistical differences of P<0.05.
The experiment described above in Example 7 was repeated with blends of 2.0 lb/ton, 1.5 lb/ton, 1.0 lb/ton or 0.5 lb/ton of 65% propionic acid and either […]. The blends were prepared according to the matrix outlined in Table 8, below. The 65% propionic acid was buffered with ammonium hydroxide to a pH of 5.5.

Salmonella = details: for Average cfu/g / Average log / Average Δ log: protocol of Example 9; for Average Δ log: versus control; for Δ log: Table 11, 90 min 37 C
Method: Tests were carried out using 1 g feed (crumble ground) with 6% meat and bone meal (“MBM”). […] The acid solutions were added to the feed as indicated below; water (1 mL) and 150 mM HCl (1.8 mL) was added to bring the pH to 4.0. Naldixic Acid resistant Salmonella (provided by Dr. Stan Bailey, USDA/ARS, Athens, Ga.) (initial colony count=40,000 cfu/g) was added, and the feed solutions were incubated at 37 C for 90 min. Each sample was diluted with 6 mL H2O, plated, and counted the following day.

S. enteritidis = S. enteritidis colony counts in broth (Examples 1-3, 17); details: pH 4.5; for log cfu/mL: Table 24, blends total 5 g/L, control […]; for log cfu/mL (S. enteritidis colony counts in broth): total 5 g/L, protocol of Example 1; for inhibitory effect on S. enteritidis: 5 g/l, Example 17
E. coli (ATCC 25922) = assay: E. coli populations in trypticase soy broth with acid:Alimet blends (Example 4); assay type: cell-based; details: Table 7, total 6 g/L, initial 4.97 log cfu/mL
Excerpt: Blends of organic acid:Alimet® of 2:1 and 5:1 were studied, at a total concentration (organic acid+Alimet®) of 6 g/L.
The pH of the solutions were originally adjusted to pH 5 by addition of HCl and/or NaOH as needed. Activated E. coli culture solutions were transferred to fresh soy broth twice at 24-hour intervals prior to before addition of the organic acid:Alimet® blend. E. coli culture solutions were centrifuged; pellet produced was re-suspended with Butterfield buffer, and the resulting solutions were diluted to approximately 10^7 CFU E. coil/mL.
Bottles were inoculated with 100 μL of prepared bacterial suspension and an organic acid:Alimet® blend. Samples were taken after five and 24 hours of incubation, serially diluted and spread-plated on trypticase soy agar, and incubated at 35° C. for 24 hours.

[1] = test system: Common carp, Cyprinus carpio L.; assay: Feeding preference of common carp, number of bites (Example 25); assay type: in vivo; details: for Bites/10 minutes: test diet vs control diet in same tank
Method: Common carp, Cyprinus carpio L. from a commercial fish farm were acquired and sorted to common body weight and length, about 20 g and 8-11 cm, respectively. […] Diets were mixed with adequate water to create a stable feed ball. […] Twenty tanks (45 cm×40 cm×45 cm) were dedicated the feeding behavior assessment. Two fish were housed in each tank with two feeding bars per tank. […] The water in each tank was aerated 24 h a day and the fish were fed the control diet under the above conditions for one week prior to the study. To evaluate preference, the control and test diets were each placed on one of the two bars in each tank.

E. coli = E. coli colony counts over time in soy broth at pH 4 or 7.3 (Example 5); assay type: cell-based; details: FIG. 5
Method: The cultures were incubated, and colony counts performed at increasing times.

[2] = Table 26, acid or formaldehyde plus Alimet
[3] = Table 34, formulations of Table 33 (g/kg)
[4] = Table 37, formulations of Table 36 (g/kg)
[5] = Table 38, formulations of Table 36 (g/kg)

Compound: CCC(=O)O [65% propionic acid, propionic acid]
- delay of the onset of mold growth (mold): about 11 days

Compound: CCCC(=O)O [Blend A16]
- log cfu/g (Salmonella; Table 13, blends without Alimet, control 4.7): 2.7 log cfu/g
- Δ log reduction (Salmonella; Table 13, blends without Alimet, vs control): 2.0

Compound: O=CO [Blend A81]
- log cfu/mL (S. enteritidis): 3.93 log cfu/mL

Compound: CCCC(=O)O [Blend A87]
- log cfu/mL (S. enteritidis): 4.44 log cfu/mL

Compound: O=C(O)CC(O)(CC(=O)O)C(=O)O [Blend A93]
- log cfu/mL (S. enteritidis): 4.74 log cfu/mL

Compound: O=C(O)/C=C/C(=O)O [Blend A99]
- log cfu/mL (S. enteritidis colony counts in broth) (S. enteritidis; Table 25, acid plus Alimet): 4.68 log cfu/mL

Compound: CC(O)C(=O)O (stereo not shown) [Blend A105]
- log cfu/mL (S. enteritidis colony counts in broth) (S. enteritidis; Table 25, acid plus Alimet): 4.44 log cfu/mL

Compound: O=C(O)CC(O)C(=O)O (stereo not shown) [Blend A111]
- log cfu/mL (S. enteritidis colony counts in broth) (S. enteritidis; Table 25, acid plus Alimet): 5.01 log cfu/mL

Compound: CCC(=O)O [Blend A117]
- log cfu/mL (S. enteritidis colony counts in broth) (S. enteritidis; [2]): 4.34 log cfu/mL

Compound: O=P(O)(O)O [Blend A123]
- log cfu/mL (S. enteritidis colony counts in broth) (S. enteritidis; [2]): 4.68 log cfu/mL

Compound: C=O [Blend A129]
- log cfu/mL (S. enteritidis colony counts in broth) (S. enteritidis; [2]): −0.30 log cfu/mL

Compound: CCCC(=O)O [Blend A147]
- Trial 1 cfu/g (Salmonella; Table 34): 22,200 cfu/g
- Trial 2 cfu/g (Salmonella; Table 34): 15,400 cfu/g
- Average cfu/g (Salmonella; [3]): 18,800 cfu/g
- Average log (Salmonella; [3]): 4.3
- Average Δ log (Salmonella; Table 34): 0.4

Compound: CCCC(=O)O [Blend A177]
- Trial 1 cfu/g (Salmonella; Table 37): 5,400 cfu/g
- Trial 2 cfu/g (Salmonella; Table 37): 7,000 cfu/g
- Trial 3 cfu/g (Salmonella; Table 37): 6,600 cfu/g
- Average cfu/g (Salmonella; [4]): 6,333 cfu/g
- Average log (Salmonella; [4]): 3.8
- Average Δ log (Salmonella; Table 37): 0.5

Compound: CCC(=O)O [Blend A204]
- Trial 1 cfu/g (Salmonella; Table 38): 5,400 cfu/g
- Trial 2 cfu/g (Salmonella; Table 38): 1,600 cfu/g
- Average cfu/g (Salmonella; [5]): 3,500 cfu/g
- Average log (Salmonella; [5]): 3.5
- Average Δ log (Salmonella; Table 38): 0.6

Compound: CSCCC(O)C(=O)O (stereo not shown) [Blend A207]
- Trial 1 cfu/g (Salmonella; Table 38): 0 cfu/g
- Trial 2 cfu/g (Salmonella; Table 38): 0 cfu/g
- Trial 3 cfu/g (Salmonella; Table 38): 0 cfu/g
- Trial 4 cfu/g (Salmonella; Table 38, Trial 4): 0 cfu/g
- Average cfu/g (Salmonella; [5]): 0 cfu/g
- Average Δ log (Salmonella; Table 38): 4.2

Compound: Cl [HCl, hydrochloric acid]
- log cfu/mL t = 4 h (E. coli (ATCC 25922)): 7.85 log cfu/mL
- log cfu/mL t = 24 h (E. coli (ATCC 25922)): 8.34 log cfu/mL

Compound: CSCCC(O)C(=O)O (stereo not shown) [MHA, methionine hydroxy analog]
- Bites/10 minutes ([1]; MHA 0.077 % Inclusion): 74.39 ± 14.14 Bites/10 minutes
- Bites/10 minutes ([1]; MHA 0.154 % Inclusion): 67.73 ± 23.18 Bites/10 minutes
- Bites/10 minutes ([1]; MHA 0.308 % Inclusion): 63.52 ± 20.23 Bites/10 minutes
- number of bites vs control diet ([1]; common carp, 10 minutes, 0.07-0.28% Alimet or 0.077-0.308% MHA in diet): significantly higher

Compound: O=P(O)(O)O [Phosphoric, phosphoric acid]
- inhibitory effect on S. enteritidis (S. enteritidis): do not show a significant inhibitory effect

Compound: CCCC(=O)O [butyric, butyric acid]
- Δ log (Salmonella; 10 g/L, vs control): 0.7
- Δ log (Salmonella; 30 g/L, vs control): 4.0
- Δ log (Salmonella; 50 g/L, vs control): 4.0

Compound: O=C(O)/C=C/C(=O)O [fumaric, fumaric acid]
- inhibitory effect on S. enteritidis (S. enteritidis): do not show a significant inhibitory effect

Compound: CC(O)C(=O)O (stereo not shown) [lactic, lactic acid]
- decrease of colony counts of E. coli vs hydrochloric acid (E. coli): better than hydrochloric acid
- inhibitory effect on S. enteritidis (S. enteritidis): do not show a significant inhibitory effect

Compound: O=C(O)CC(O)C(=O)O (stereo not shown) [malic, malic acid]
- inhibitory effect on S. enteritidis (S. enteritidis): do not show a significant inhibitory effect

Compound: CCC(=O)O [propionic, propionic acid]
- inhibitory effect on S. enteritidis (S. enteritidis): do not show a significant inhibitory effect
